Laboratory results taken from publication PMC9412414, “A Study on Repositioning Nalidixic Acid via Lanthanide Complexation: Synthesis, Characterization, Cytotoxicity and DNA/Protein Binding Studies” (Pharmaceuticals, 2022).

Assays:
[1] = target: T1, apotransferrin (apo-Tf) (Homo sapiens, UniProt P02787); experiment: Apo-Tf fluorescence quenching binding study; settings: for Ka (association binding constant), Apo-Tf / n1 (Number of Binding Sites), Apo-Tf / n2 (Hill Coefficient), Apo-Tf / Kd / fa (fraction of fluorophore accessible to the quencher), Apo-Tf / Ksv* (Stern–Volmer quenching constant), Apo-Tf / quenching effect on apo-Tf fluorescence peak: apo-Tf 1 µM; for Ka (association binding constant), Apo-Tf / n1 (Number of Binding Sites), Apo-Tf / n2 (Hill Coefficient), Apo-Tf / Kd / fa (fraction of fluorophore accessible to the quencher), Apo-Tf / Kq (bimolecular quenching constant), Apo-Tf: 298 K; for Kd: read-out: Kd (dissociation constant), Apo-Tf; for fa (fraction of fluorophore accessible to the quencher), Apo-Tf / Ksv* (Stern–Volmer quenching constant), Apo-Tf: compound 0–8 µM; for Ksv* (Stern–Volmer quenching constant), Apo-Tf: Tris-HCl pH 7.4, 298 K; for Kq (bimolecular quenching constant), Apo-Tf: from Ksv* with τ0 = 10^−8 s; for quenching effect on apo-Tf fluorescence peak: compound up to 8 µM
T1 construct: purchased Sigma-Aldrich Chemical Co. (Schnelldorf, Germany)
T1 sequence (P02787 20-698): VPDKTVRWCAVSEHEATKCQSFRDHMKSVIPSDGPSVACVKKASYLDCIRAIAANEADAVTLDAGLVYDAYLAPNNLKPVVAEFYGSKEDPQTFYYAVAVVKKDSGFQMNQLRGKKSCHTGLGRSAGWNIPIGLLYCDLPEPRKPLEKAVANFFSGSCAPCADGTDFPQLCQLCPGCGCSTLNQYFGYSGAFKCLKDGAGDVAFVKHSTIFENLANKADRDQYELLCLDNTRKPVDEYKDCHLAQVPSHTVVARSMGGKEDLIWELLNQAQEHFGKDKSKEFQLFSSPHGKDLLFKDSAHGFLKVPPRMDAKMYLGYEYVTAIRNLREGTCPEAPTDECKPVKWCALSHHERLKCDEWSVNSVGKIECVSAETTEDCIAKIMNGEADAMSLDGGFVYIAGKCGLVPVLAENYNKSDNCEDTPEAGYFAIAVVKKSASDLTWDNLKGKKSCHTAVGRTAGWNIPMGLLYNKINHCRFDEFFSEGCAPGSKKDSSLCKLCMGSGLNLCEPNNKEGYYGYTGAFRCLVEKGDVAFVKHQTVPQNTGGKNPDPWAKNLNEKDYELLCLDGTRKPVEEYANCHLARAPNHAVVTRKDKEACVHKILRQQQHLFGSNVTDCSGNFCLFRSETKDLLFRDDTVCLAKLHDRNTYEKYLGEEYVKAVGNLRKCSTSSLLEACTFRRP
Protocol: (§1) Using a Jasco FP 6500 spectrofluorometer (Jasco, Tokyo, Japan) and quartz cells with a 1 cm path length, the fluorescence spectra of HSA and apo-Tf were recorded in the presence and absence of the examined substances. The 2.5 mL samples containing 2.5 µM HSA or 1 µM apo-Tf were titrated by adding 5 µL of the tested substance at a time, a volume that corresponded to a 1 µM increase in concentration. The concentration range used for these experiments varied from 0 to 8 µM. The relevant spectra were collected in the emission domains of 300–500 nm (HSA) and 305–500 nm (apo-Tf) after 3 min of continuous stirring at room temperature, using excitation wavelengths of 280 nm (HSA) and 295 nm (apo-Tf).
(§2) Experiments were conducted in a pH = 7.4 Tris-HCl buffer (5 mM Tris-HCl/50 mM NaCl for HSA and 5 mM Tris-HCl/50 mM NaCl/25 mM NaHCO3 for apo-Tf).
(§3) The following modified Stern–Volmer equation has been used to calculate the Stern–Volmer constant, which will be denoted as KSV* in order to differentiate it from the Stern–Volmer constant calculated for the DNA binding experiments:(5) F0/F0−F=1/faKsv*[Q]+1/fa where F0 and F are the fluorescence intensities in the absence and presence of the tested compounds, fa is the fraction of fluorophore accessible to the quencher (the tested compounds), [Q] is the quencher concentration, and KSV* (M^−1) is the Stern–Volmer constant; the plot of F0/(F0 − F) against 1/[Q] yields KSV as the slope and fa as the y intercept.
(§4) Subsequently, the bimolecular quenching rate constant was obtained by using Equation (6):(6) Ksv^*=Kqτ0
(§5) Kq (M^−1·s^−1) is the bimolecular quenching rate constant and τ0 is the fluorophore’s lifespan in the absence of the investigated chemicals (10^−8 s). The value of Kq can be used to assess whether the quenching phenomena have an underlying static or dynamic mechanism.
(§6) Using the following equation, the affinity constant (Ka) and the number of binding sites (n) have been calculated: (7) lgF0−F/F=lgKa+nlg[Q]
(§7) The binding affinity, Kd, can be calculated using the quadratic function below:(8) F0−F/F0−Fb=[P]t+[Q]+Kd−([P]t+[Q]+Kd)^2−4[P]t[Q]/2[P]t where F and F0 are the fluorescence intensities of the protein in the presence and absence of the quencher, respectively, Fb is the fluorescence of a fully bound protein–quencher, [P]t is the total concentration of the protein, and [Q] is the concentration of the added quencher. Each binding isotherm was plotted against the total quencher concentration in solution as a function of bound to free protein (F/F0).
(§8) The isotherms were then fitted using the nonlinear regression function below:(9) F/F0= F1+(F2−F1)Kdn/Kdn+[Q]^n where n represents the Hill coefficient, F1 and F2 are the horizontal and vertical asymptotes, respectively. The Kd in Equation (9) is derived from the quadratic binding function (Equation (8)).
(§9) Data were collected in triplicate, averaged, and expressed as mean value ± standard deviation (SD). All graph fitting models were defined and built using OriginPro® 2018.

[2] = system: LoVo (human colorectal adenocarcinoma) cell line; experiment: MTS cytotoxicity assay, LoVo cell line; assay type: cell-based; settings: 48 h of incubation
Protocol: (§10) LoVo, MDA-MB-231 and HUVEC human cell lines were purchased from American Type Culture Collection (ATCC). Cells were routinely maintained in culture either in culture flasks or seeded in plates, using Dulbecco’s modified Eagle medium/nutrient mixture F-12 (DMEM:F12) medium supplemented with […], 10% fetal calf serum (Sigma Aldrich, St. Louis, MO, USA), 100 units/mL penicillin, 100 μg/mL streptomycin and incubated at 37 °C in 5% CO2 humidified atmosphere.
(§11) Cytotoxicity studies were performed in 96-well microtiter plates with flat bottoms (Falcon, Teterboro, NJ, USA) using the CellTiter 96 Aqueous One Solution Cell Proliferation Assay (Promega, Madison, WI, USA), an MTS-based colorimetric assay. Metabolically active cells have the ability to reduce MTS [3-(4,5-dimethylthiazol-2-yl)-5-(3-carboxymethoxyphenyl)-2-(4-sulfophenyl)-2H-tetrazolium, inner salt], a yellow tetrazolium salt, to a colored formazan that is soluble in the culture medium. Briefly, 15 × 10^3 cells per well were cultured in 100 µL culture medium. After 24 h, adherent cells were treated with different concentrations of the studied compounds, as well as adriamycin (Adr) and cisplatin (Cis-Pt), used as positive controls for 24 h and 48 h, respectively. Each well was then filled with 20 µL of reagent containing MTS and PES (phenazine ethosulfate, a cationic dye with excellent chemical stability that binds to MTS and produces a stable solution). The resulting formazan was determined using a Tecan GENios Spectrophotometer (Tecan US, Durham, NC, USA) by measuring the absorbance at λ = 492 nm after incubation for 4 h at 37 °C with moderate agitation every 15 min. The cytotoxicity tests were performed in triplicate, with results reported as mean values with standard deviations (SD). The cytotoxicity of DMSO was also investigated under the same conditions, and no harmful effect was found at doses less than 1%.
(§12) Data were expressed as cell viability by comparing with untreated cells considered 100% viable, using the following formula:(1) Cell viability (%)=absorbance of treated cells−absorbance of culture medium/absorbance of untreated cells−absorbance of culture medium

[3] = target: T2, human serum albumin (HSA) (Homo sapiens, UniProt P02768); experiment: HSA fluorescence quenching binding study; settings: for Ka (association binding constant), HSA / n1 (Number of Binding Sites), HSA / n2 (Hill Coefficient), HSA / Kd / fa (fraction of fluorophore accessible to the quencher), HSA / Kq (bimolecular quenching constant), HSA: 298 K; for Kd: read-out: Kd (dissociation constant), HSA; for fa (fraction of fluorophore accessible to the quencher), HSA / Ksv* (Stern–Volmer quenching constant), HSA: compound 0–8 µM; for Ksv* (Stern–Volmer quenching constant), HSA: Tris-HCl pH 7.4, 298 K; for Kq (bimolecular quenching constant), HSA: from Ksv* with τ0 = 10^−8 s
T2 construct: purchased Sigma-Aldrich Chemical Co. (Schnelldorf, Germany)
T2 sequence (P02768 25-609): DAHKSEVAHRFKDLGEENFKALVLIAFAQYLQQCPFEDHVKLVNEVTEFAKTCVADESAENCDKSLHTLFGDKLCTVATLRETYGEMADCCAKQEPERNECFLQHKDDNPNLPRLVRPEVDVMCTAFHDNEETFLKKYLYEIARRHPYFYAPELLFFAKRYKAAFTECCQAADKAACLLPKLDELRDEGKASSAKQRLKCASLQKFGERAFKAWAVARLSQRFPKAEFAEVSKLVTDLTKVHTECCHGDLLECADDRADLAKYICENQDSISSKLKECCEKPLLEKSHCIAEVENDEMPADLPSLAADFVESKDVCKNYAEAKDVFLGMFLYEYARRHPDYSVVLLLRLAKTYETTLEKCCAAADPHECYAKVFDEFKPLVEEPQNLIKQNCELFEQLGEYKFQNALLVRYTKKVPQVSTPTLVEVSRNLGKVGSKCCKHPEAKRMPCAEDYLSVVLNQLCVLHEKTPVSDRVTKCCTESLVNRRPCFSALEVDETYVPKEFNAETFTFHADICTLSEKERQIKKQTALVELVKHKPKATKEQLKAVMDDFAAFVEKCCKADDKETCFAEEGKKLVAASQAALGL
Protocol: as §1, §2, §3, §4, §5, §6, §7, §8, §9

[4] = system: HUVEC (human umbilical vein endothelial cells); experiment: MTS cytotoxicity assay, HUVEC normal cell line; assay type: cell-based; settings: 24 h of incubation
Protocol: as §10, §11, §12

[5] = system: EB–DNA system (CT-DNA); experiment: Competitive binding assay with ethidium bromide (EB) through fluorescence spectroscopy; parameters: species or system calf; settings: EB 2 µM, CT-DNA 10 µM, compound 0–40 µM
Protocol: The fluorescence spectra were recorded using 1.6 mL samples containing 10 µM CT-DNA, 2 µM EB, and increasing amounts (0–40 µM with an increment of 5 µM) of tested compounds; the samples were prepared by keeping the components in contact for 10 min at room temperature, under continuous stirring and in the dark. The excitation wavelength was 500 nm, and the spectra were recorded between the wavelengths of 520 and 800 nm. A Jasco FP 6500 fluorometer and quartz cells with a 1 cm route length were employed. The classical Stern–Volmer equation (Equation (3)) was used to interpret the obtained data:(3) F0/F=1+KSV·[Q] F0 and F are the fluorescence intensities of the EB–DNA samples in the absence and presence of the tested compounds, respectively; KSV is the Stern–Volmer constant, which was computed as the slope from the plot of F0/F vs. [Q], where [Q] is the chemical concentration.
The binding ratio was plotted against the logarithm of the concentration in comparison with a control sample exposed solely to DMSO. (4) y=A1+(A2−A1)×x^n/K50^n+x^n
For fitting data points, the modified Hill function with offset (Origin®) was used: where y represents the binding ratio (F/F0), x represents the concentration, A1 represents the minimum of y values, A2 represents the maximum of y values, K50 represents the concentration corresponding to 50% binding or the half maximum binding constant, and n represents the Hill coefficient.

Row | Molecule | Ka (association binding constant), Apo-Tf [1] | n1 (Number of Binding Sites), Apo-Tf [1] | n2 (Hill Coefficient), Apo-Tf [1] | Kd [1] | fa (fraction of fluorophore accessible to the quencher), Apo-Tf [1] | Ksv* (Stern–Volmer quenching constant), Apo-Tf [1] | Kq (bimolecular quenching constant), Apo-Tf [1] | IC50 [2] | Ka (association binding constant), HSA ([3]; HSA 2.5 µM) | n1 (Number of Binding Sites), HSA ([3]; HSA 2.5 µM) | n2 (Hill Coefficient), HSA ([3]; HSA 2.5 µM) | Kd ([3]; HSA 2.5 µM) | fa (fraction of fluorophore accessible to the quencher), HSA ([3]; HSA 2.5 µM) | Ksv* (Stern–Volmer quenching constant), HSA ([3]; HSA 2.5 µM) | Kq (bimolecular quenching constant), HSA [3] | IC50 [4] | EB Displacement Assay K50 (half maximum binding constant) [5] | KSV, Stern–Volmer quenching constant (EB–DNA) [5] | quenching effect on apo-Tf fluorescence peak [1] | quenching effect on HSA fluorescence peak ([3]; HSA 2.5 µM, compound up to 8 µM)
1 | Gd(C12H11N2O3)3(H2O)2·1.5H2O [Gd(nal)3] | (2.63 ± 0.39) × 10^4 M^−1 | 0.87 ± 0.01 | 1.22 ± 0.12 | 5.86 ± 0.72 µM | 0.82 ± 0.02 | (1.78 ± 0.07) × 10^5 M^−1 | 1.78e+13 M⁻¹ s⁻¹ | 28.4 ± 7.95 µM | (19.61 ± 1.83) × 10^5 M^−1 | 1.14 ± 0.01 | 1.35 ± 0.12 | 3.27 ± 0.11 µM | 1.10 ± 0.00 | (2.69 ± 0.05) × 10^5 M^−1 | 2.69e+13 M⁻¹ s⁻¹ | 58.4 ± 29.3 µM | 31.88 ± 7.73 µM | 9.86 ± 0.19 M^−1 (×10^3) |  | 
2 | CCn1cc(C(=O)[O-])c(=O)c2ccc(C)nc21.CCn1cc(C(=O)[O-])c(=O)c2ccc(C)nc21.O.O.O.O.[OH-].[Sm+3] [Sm(nal)2, Sm(C12H11N2O3)2(OH)(H2O)·3H2O] | (10.17 ± 6.14) × 10^4 M^−1 | 1.01 ± 0.05 | 1.71 ± 0.31 | 6.16 ± 1.27 µM | 0.79 ± 0.02 | (1.16 ± 0.06) × 10^5 M^−1 | 1.16e+13 M⁻¹ s⁻¹ | 92.4 ± 16 µM | (8.25 ± 1.62) × 10^5 M^−1 | 1.08 ± 0.01 | 1.34 ± 0.09 | 3.6 ± 0.11 µM | 1.05 ± 0.02 | (2.50 ± 0.12) × 10^5 M^−1 | 2.5e+13 M⁻¹ s⁻¹ | > 200 µM | 31.35 ± 4.21 µM | 10.24 ± 0.22 M^−1 (×10^3) | 35% | ~ 73%
3 | CCn1cc(C(=O)[O-])c(=O)c2ccc(C)nc21.CCn1cc(C(=O)[O-])c(=O)c2ccc(C)nc21.CCn1cc(C(=O)[O-])c(=O)c2ccc(C)nc21.O.O.O.O.O.O.O.O.[La+3] [La(nal)3, La(C12H11N2O3)3(H2O)2·6H2O] | (1.51 ± 0.72) × 10^4 M^−1 | 0.86 ± 0.04 | 1.04 ± 0.19 | 8.64 ± 2.22 µM | 0.80 ± 0.06 | (1.04 ± 0.13) × 10^5 M^−1 | 1.04e+13 M⁻¹ s⁻¹ | 49.8 ± 7.92 µM | (27.48 ± 2.10) × 10^5 M^−1 | 1.16 ± 0.00 | 1.18 ± 0.08 | 2.91 ± 0.07 µM | 1.12 ± 0.01 | (2.75 ± 0.10) × 10^5 M^−1 | 2.75e+13 M⁻¹ s⁻¹ | 149 ± 17.9 µM | 36.45 ± 16.53 µM | 2.48 ± 0.44 M^−1 (×10^3) | 31% | 
4 | CCn1cc(C(=O)[O-])c(=O)c2ccc(C)nc21.CCn1cc(C(=O)[O-])c(=O)c2ccc(C)nc21.O.O.O.[La+3].[OH-] [La(nal)2, La(C12H11N2O3)2(OH)(H2O)·2H2O] | (6.94 ± 2.32) × 10^4 M^−1 | 1.00 ± 0.03 | 1.82 ± 0.55 | 5.43 ± 1.46 µM | 1.20 ± 0.49 | (0.44 ± 0.23) × 10^5 M^−1 | 4.4e+12 M⁻¹ s⁻¹ | 25.1 ± 9.11 µM | (9.03 ± 1.04) × 10^5 M^−1 | 1.09 ± 0.01 | 1.32 ± 0.11 | 3.35 ± 0.11 µM | 1.09 ± 0.02 | (1.09 ± 0.02) × 10^5 M^−1 | 1.09e+13 M⁻¹ s⁻¹ | 114 ± 46.8 µM | 31.39 ± 13.66 µM | 8.90 ± 0.17 M^−1 (×10^3) |  | 
